# Patent US8288510B2, “Isolated peptides having phospholipase inhibitory activity” (priority 2008, dated 2012)
# Residue numbers refer to the chain shown, from its start.
# T1: TLL variant N248G/Q249G/P250T/N251L/I252G/P253L (Thermomyces lanuginosus, UniProt O59952, I274G/N270G/N273L/P272T/P275L/Q271G)
# T1 sequence (O59952 23-291 N270G/Q271G/P272T/N273L/I274G/P275L): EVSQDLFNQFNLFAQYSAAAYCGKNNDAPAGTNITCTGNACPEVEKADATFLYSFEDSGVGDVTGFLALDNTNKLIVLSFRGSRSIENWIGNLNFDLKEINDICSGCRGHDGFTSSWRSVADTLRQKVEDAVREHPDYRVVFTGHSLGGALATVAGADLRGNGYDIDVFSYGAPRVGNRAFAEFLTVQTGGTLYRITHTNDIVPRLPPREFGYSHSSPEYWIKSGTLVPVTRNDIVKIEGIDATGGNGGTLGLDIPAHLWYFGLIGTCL
# B1: FoL: Fusarium oxysporum lipase, SEQ ID No. 1 (protein, listed as Fusarium oxysporum)
# chain: AVGVTTTDFSNFKFYIQHGAAAYCNSEAAAGSKITCSNNGCPTVQGNGATIVTSFVGSKTGIGGYVATDSARKEIVVSFRGSINIRNWLTNLDFGQEDCSLVSGCGVHSGFQRAWNEISSQATAAVASARKANPSFNVISTGHSLGGAVAVLAAANLRVGGTPVDIYTYGSPRVGNAQLSAFVSNQAGGEYRVTHADDPVPRLPPLIFGYRHTTPEFWLSGGGGDKVDYTISDVKVCEGAANLGCNGGTLGLDIAAHLHYFQATDACNAGGFSWRRYRSAESVDKRATMTDAELEKKLNSYVQMDKEYVKNNQARS
# B2: TLL: Thermomyces lanuginosus lipase, SEQ ID No. 9 (protein, listed as Thermomyces lanuginosus)
# chain: T1 sequence (O59952 23-291 N270G/Q271G/P272T/N273L/I274G/P275L) with G248N, G249Q, T250P, L251N, G252I, L253P
# Experiments:
# FOL I207E variant = assay: Enzyme assay p-NP butyrate, inhibitory effect of peptides on FoL variant I207E (Example 8); format: biochemical, Fusarium oxysporum; details: for IC50 value (half maximal inhibitory concentration): FOL I207E variant, fitted against inhibitor/lipase ratio (peptide excess 0.5 to 1000), p-NP butyrate, pH 7
# Procedure: (§1) Enzyme assay: The substrate used for these experiments was para-nitropenyl (p-NP) butyrate (N9876 Sigma Aldrich). A substrate stock solution was prepared by adding 18 μL of p-NP butyrate to 1 ml of 2-propanol giving a 100 mM stock solution. The working solution was prepared by diluting 500 μL stock solution in final volume of 50 mL 500 mM phosphate pH 7, 0.4% triton X-100. […] An enzyme substrate blank containing 60 μL was included. After pre-incubation in minimum 15 minutes, 100 μL of substrate was added and the reaction was followed in microtiter plate spectrophotometer (SPECTRAmax PLUS 384 from Molecular Devices) after an initial shaking (5 sec.) at room temperature. Colour development over time was monitored at A405 (every 20 sec. for 30 minutes), measuring p-nitrophenol, one of the degradation products of p-NP butyrate, liberated by the hydrolysis.
# (§2) Initial reaction rates (determined as the linear initial slope of A405 plotted against time) were plotted against the logarithm to the inhibitor/lipase ratio. From the following model IC50 values were determined:
# (§3) v0 is the initial reaction rate, vmax is the maximum rate, vmin is the minimum reaction rate and IC50 is the half maximal inhibitory concentration. GraphPad Prism (v.5.00, Mar. 12, 2007) from GraphPad Software, Inc. was used for regression.
# FOL wt = assay: Enzyme assay p-NP butyrate, inhibitory effect of peptides on FoL wildtype (Example 8); format: biochemical, Fusarium oxysporum; details: fitted against inhibitor/lipase ratio (peptide excess 0.5 to 1000), pH 7
# Procedure: as §1, §2, §3
# [1] = molecular target: T1, TLL variant N248G/Q249G/P250T/N251L/I252G/P253L; assay: Enzyme assay p-NP butyrate, inhibitory effect of peptides on TLL variant (Example 9); format: biochemical; details: peptide/lipase ratios 5 to 5000 (P11, P13), 6 to 6000 (P12)
# Procedure: as §1, §2, §3
# Enzyme assay: As described above.
# [2] = Lecithin plate assay, clearing zone (phospholipase activity); format: biochemical; details: for Clearing zone diameter: after 20 hours incubation
# FOL I207E variant, sequence (as listed by the source, stated change not applied): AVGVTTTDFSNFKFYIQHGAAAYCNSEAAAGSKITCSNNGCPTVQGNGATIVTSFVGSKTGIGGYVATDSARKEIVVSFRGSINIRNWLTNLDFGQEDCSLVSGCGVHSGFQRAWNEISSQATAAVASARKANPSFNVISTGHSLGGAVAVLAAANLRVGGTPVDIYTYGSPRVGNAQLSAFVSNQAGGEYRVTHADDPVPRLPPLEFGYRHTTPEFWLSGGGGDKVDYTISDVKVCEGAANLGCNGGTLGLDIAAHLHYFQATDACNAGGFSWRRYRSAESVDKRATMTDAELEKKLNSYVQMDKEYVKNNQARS
molecule,measurement,setting,value
ATMTDAELEKKLNSYVQMAKEYVKNNQARS [P1′],IC50 value (half maximal inhibitory concentration),FOL I207E variant,No
same,IC50 value (half maximal inhibitory concentration),FOL wt,No
ATMTDAELEKKLNSYVQMDKEEVKNNQARS [Peptide P4],IC50 value (half maximal inhibitory concentration),FOL I207E variant,Very low
same,IC50 value (half maximal inhibitory concentration),FOL wt,No
ATMTDAELEKKLNSYVQMDKEYVKNNQARS [Peptide P0],"binding of the peptide by FoL variant I207E compared with wildtype enzyme (% inhibition curves, FIG. 8 C)",FOL I207E variant; 0% inhibition assumed for lowest peptide concentration,better at binding the peptide than the wildtype enzyme
ATMTDAELTKKLNSYVQMDKEYVKNNQARS [Peptide P2],IC50 value (half maximal inhibitory concentration),FOL wt,Very low
ATMTDAEVEKKLNSYVQMDKEYVKNNQARS [Peptide P11],IC50 value (half maximal inhibitory concentration),[1],Very low
ATMTEAELEKKLNSYVQMDKEYVKNNQARS [Peptide P1],IC50 value (half maximal inhibitory concentration),FOL wt,Very low
B1,Clearing zone diameter,[2]; ODA280 0.2,7 mm
same,Clearing zone diameter,[2]; ODA280 0.5,10 mm
B2,Clearing zone diameter,[2]; ODA280 0.2,0 mm
same,Clearing zone diameter,[2]; ODA280 0.5,0 mm
same,Clearing zone (in words),"[2]; after 20 hours of incubation, ODA280 0.2 and 0.5",did not show a clearing zone
